This note sets out measurements from article PMC10294756 (Journal of Enzyme Inhibition and Medicinal Chemistry, 2023).

For orientation: IC50 means the point on the concentration scale where inhibition reaches its midpoint. The AUC(0-inf) is the area under the concentration-time curve extrapolated to infinity. Read a high AUC(0-inf) as high exposure. The term Cmax denotes the highest concentration seen after dosing. In general, Tmax refers to the time from dosing to the highest level. By Vd is commonly meant the apparent volume that relates the amount in the body to the concentration in plasma or blood. As usually defined, the clearance is the volume of plasma or blood freed of the substance per unit of time. A lower clearance goes with a low capacity for elimination. One may read the half-life as the time in which the quantity being followed falls by half. Low readings indicate rapid decline, high ones slow decline.

Where two headings read alike, the source gives them in different places. Bounds are passed on as bounds.

The test system of data set [1] is HepG2. The experiment in a line: MTT assay, HepG2 cells. As to conditions: Homo sapiens, HepG2, 48 h, read-out: IC50 HepG2. The data set is classed as cell-based, human. Background: Tetrazolium assays rely on reduction of a dye to a coloured formazan, in cell work by metabolically active cells.
The test system of data set [2] is HuH7. The experiment in a line: MTT assay, HuH7 cells. The data set is classed as cell-based, human. As to conditions: Homo sapiens, Huh-7, 48 h, read-out: IC50 HuH7.
Another data set relates to SMMC-7721. Put plainly: MTT assay, SMMC-7721 cells. The data set is classed as cell-based, human. As to conditions: Homo sapiens, SMMC-7721, 48 h, read-out: IC50 SMMC-7721.
In the next data set the test system is LO2. The experiment in a line: MTT assay, normal hepatocyte LO2. The data set is classed as cell-based, human.
Data set [3] relates to HCC cell lines (HepG2, HuH7, and SMMC-7721). The experiment in a line: MTT assay, results stated over the three HCC cell lines. The data set is classed as cell-based. As to conditions: Homo sapiens, 48 h, read-out: IC50 against HCC cells (span over cell lines).
In data set [4] the test system is transcriptional activity of Nur77 in Hela cells. The experiment in a line: Dual-luciferase reporter assay. The data set is classed as cell-based. As to conditions: 24 h treatment. (In a reporter assay the amount or activity of a reporter protein is the signal.)
For data set [5], the system named is HepG2. The experiment in a line: Colony formation assay, HepG2. The data set is classed as cell-based, human. As to conditions: HepG2, one week.
Data set [6] concerns HuH7. The experiment in a line: Colony formation assay, HuH7. The data set is classed as cell-based, human. As to conditions: HuH7, one week.
Data set [7] has as its system HuH7 cells. Put plainly: Cell cycle analysis by flow cytometry, HuH7. The data set is classed as cell-based, human. As to conditions: 10 h. Background: In flow cytometry, cells or beads pass a laser one at a time.
Data set [8] relates to HepG2 cells. Put plainly: Cell cycle analysis by flow cytometry, HepG2. The data set is classed as cell-based, human. As to conditions: 10 h.
A further data set concerns A549-Nur77-/- cells. The experiment in a line: Cell cycle analysis by flow cytometry, A549 Nur77-/-. The data set is classed as cell-based, human. As to conditions: 10 h.
In data set [9] the test system is HuH7 cells. Put plainly: Annexin V-FITC/PI apoptosis detection assay, HuH7. As to conditions: 24 h. The data set is classed as cell-based, human.
Data set [10] relates to HepG2 cells. Put plainly: Annexin V-FITC/PI apoptosis detection assay, HepG2. As to conditions: HepG2, 1.0 μM, 24 h. The data set is classed as cell-based, human.
Data set [11] relates to cleaved-PARP and LC3-II in HuH7 cells. Put plainly: Western blotting, HuH7 cells. As to conditions: HuH7, 24 h. The data set is classed as cell-based, human.
Data set [12] has as its system cleaved-PARP, LC3-II and Nur77 in HepG2 cells. The experiment in a line: Western blotting, HepG2 cells. The data set is classed as cell-based, human.
A further data set is described as follows: In vivo PK study. Set-up: species or system Sprague-Dawley (SD) rats.
The mark [13] stands for this setting: Homo sapiens, L02, 48 h, read-out: IC50 LO2, normal liver cell line, MTT, 48 h.
[14] abbreviates: read-out: IC50 LO2, normal liver cell line, MTT, 48 h.
Setting [15] is: female, Sprague-Dawley, rat, plasma, iv, 2 mg/kg.
The mark [16] stands for this setting: female, Sprague-Dawley, rat, plasma, po, 20 mg/kg.

For the molecule `Cc1cc(Nc2ccc(C(=O)N/N=C/c3ccc(F)c(Br)c3)cc2)c2cccc(O)c2n1` [7N, (E)-N'-(3-bromo-4-fluorobenzylidene)-4-((8-hydroxy-2-methylquinolin-4-yl)amino)benzohydrazide], the IC50 in the data set with HepG2 [1] was 27.6 ± 0.81 µM; with HuH7 [2] it was 15.4 ± 2.09 µM; in the data set on SMMC-7721 it was 21.1 ± 1.01 µM; with LO2 (setting [13]) it was over 90 µM; in data set [3], 15.8 to 27.6 µM.

Regarding `Cc1cc(Nc2ccc(C(=O)N/N=C/c3cc(C(F)(F)F)ccc3F)cc2)c2cccc(O)c2n1` [7P, (E)-N'-(2-fluoro-5-(trifluoromethyl)benzylidene)-4-((8-hydroxy-2-methylquinolin-4-yl)amino)benzohydrazide], the IC50 was 7.78 ± 1.33 µM in the data set with HepG2 [1]; 19.3 ± 1.49 µM with HuH7 [2]; 8.82 ± 0.41 µM with SMMC-7721; 18 ± 1.55 µM in the data set with LO2 (setting [13]); 7.78 to 19.3 µM in data set [3].

As for `Cc1cc(Nc2ccc(C(=O)N/N=C/c3ccc4ccccc4c3)cc2)c2cccc(O)c2n1` [7S, (E)-4-((8-hydroxy-2-methylquinolin-4-yl)amino)-N'-(naphthalen-2-ylmethylene)benzohydrazide], the IC50 in the data set on HepG2 [1] is 15.6 ± 1.65 µM; with HuH7 [2] it was 16.2 ± 0.66 µM; in the data set with SMMC-7721, 22.3 ± 0.98 µM; in the data set on LO2 (setting [13]), over 60 µM; with LO2 (setting [14]) it was 66.3 ± 8.68 µM; in [3], 15 to 23.9 µM.

With `COc1ccc(/C=N/NC(=O)c2ccc(Nc3cc(C)nc4c(O)cccc34)cc2)c2ccccc12` [7T, (E)-4-((8-hydroxy-2-methylquinolin-4-yl)amino)-N'-((4-methoxynaphthalen-1-yl)methylene)benzohydrazide], the IC50 is 15 ± 4.75 µM with HepG2 [1]; 20.9 ± 2.46 µM with HuH7 [2]; 23.9 ± 2.16 µM in the data set with SMMC-7721; over 60 µM in the data set on LO2 (setting [13]); 60.7 ± 0.98 µM in the data set with LO2 (setting [14]); 15 to 23.9 µM in data set [3].

`Cc1cc(Nc2ccc(C(=O)N/N=C/c3scnc3C)cc2)c2cccc(O)c2n1` [TMHA37, (E)-4-((8-hydroxy-2-methylquinolin-4-yl)amino)-N'-((4-methylthiazol-5-yl)methylene)benzohydrazide]: the IC50 with HepG2 [1] is 2.33 ± 0.14 µM; with HuH7 [2] it was 4.09 ± 0.89 µM; with SMMC-7721, 7.68 ± 1.3 µM; in the data set on LO2 (setting [13]), 21.2 ± 1.79 µM; in [3], 2.33 to 7.68 µM. Also, in [4], the reporter activity entry is “significantly increased the reporter fluorescence intensity in a dose-dependent manner”. For the same molecule, the colony formation entry with HepG2 [5] was “significantly and dose-dependently inhibited the colony formation”; with HuH7 [6], “significantly and dose-dependently inhibited the colony formation”. Besides, the “cells in G2 (G2/M)” value is reported as 20.07% in the data set with HuH7 cells [7] (HuH7, TMHA37 1 μM); 48.26% with HuH7 cells [7] (HuH7, TMHA37 10 μM); 26.72% in the data set with HepG2 cells [8] (HepG2, TMHA37 1 μM); 63.17% in the data set with HepG2 cells [8] (HepG2, TMHA37 10 μM). The “TMHA37-caused G2/M arrest in Nur77-knockdown A549 cells compared to control cells” value in the data set with A549-Nur77-/- cells is on record as “significantly decreased”. Also, the apoptotic cells with HuH7 cells [9] (HuH7, 1.0 μM) was found to be 12.82%; with HuH7 cells [9] (HuH7, 10.0 μM), 69.50%; in the data set with HepG2 cells [10] it was 6.42%. The LC3-II level entry in data set [11] was “dose-dependently increased the level of LC3-II”; in [12] (HepG2, 24 h), “dose-dependently increased the level of LC3-II”. Further, the cleaved-PARP level entry in [11] is given as “dose-dependent upregulation of cleaved-PARP”; in [12] (HepG2, 24 h), “dose-dependent upregulation of cleaved-PARP”. Besides, the “Nur77 protein expression in cytoplasm and nucleus” value in data set [12] (HepG2, 10 μM, 3 h) is “increased the protein expression levels of Nur77 in both cytoplasm and nuclear”. The CL in “In vivo PK study” (SD rats, p.o. 20 mg/kg) came out at 1986.3 ± 307.2 mL/min/kg. The molecule further displayed a Vz in “In vivo PK study” (SD rats, p.o. 20 mg/kg) of 192.55 ± 22.13 L/kg. The AUC(0-inf) in “In vivo PK study” (setting [15]) turned out to be 247 ± 72.6 ng·h/mL; in the data set “In vivo PK study” (setting [16]), 170 ± 25.4 ng·h/mL. The Cmax turned out to be 293 ± 45.5 ng/mL in “In vivo PK study” (setting [15]) and 19.6 ± 0.97 ng/mL in the data set “In vivo PK study” (setting [16]). In addition, the Tmax in “In vivo PK study” (setting [15]) turned out to be 0.08 h; in the data set “In vivo PK study” (setting [16]), 5.83 ± 3.75 h. Also, in the data set “In vivo PK study” (setting [15]), the Vd was found to be 22.2 ± 10.1 L/kg. In “In vivo PK study” (setting [15]), this molecule had a clearance of 143 mL/min/kg. In addition, the half-life in the data set “In vivo PK study” (setting [15]) was 1.54 ± 0.35 h; in “In vivo PK study” (setting [16]) it was 1.13 ± 0.09 h.
